According to patent US9822127B2, “GAK modulators as antivirals” (Katholieke Universiteit Leuven, priority 2014, dated 2017):
Converted amounts (≈) assume the structure as drawn. Read-outs that look alike come from different tables or passages of the source.

Experiments:
[1] = molecular target: T1, GAK (Homo sapiens, UniProt O14976); assay: GAK binding assay (T7 phage kinase competition binding); settings: for remaining binding at 10 µM: read-out: % Ctrl; for % Ctrl: 10 µM
T1 construct: made in house; host or cells: T7 phage grown in E. coli host derived from BL21
T1 sequence (O14976 1-1311): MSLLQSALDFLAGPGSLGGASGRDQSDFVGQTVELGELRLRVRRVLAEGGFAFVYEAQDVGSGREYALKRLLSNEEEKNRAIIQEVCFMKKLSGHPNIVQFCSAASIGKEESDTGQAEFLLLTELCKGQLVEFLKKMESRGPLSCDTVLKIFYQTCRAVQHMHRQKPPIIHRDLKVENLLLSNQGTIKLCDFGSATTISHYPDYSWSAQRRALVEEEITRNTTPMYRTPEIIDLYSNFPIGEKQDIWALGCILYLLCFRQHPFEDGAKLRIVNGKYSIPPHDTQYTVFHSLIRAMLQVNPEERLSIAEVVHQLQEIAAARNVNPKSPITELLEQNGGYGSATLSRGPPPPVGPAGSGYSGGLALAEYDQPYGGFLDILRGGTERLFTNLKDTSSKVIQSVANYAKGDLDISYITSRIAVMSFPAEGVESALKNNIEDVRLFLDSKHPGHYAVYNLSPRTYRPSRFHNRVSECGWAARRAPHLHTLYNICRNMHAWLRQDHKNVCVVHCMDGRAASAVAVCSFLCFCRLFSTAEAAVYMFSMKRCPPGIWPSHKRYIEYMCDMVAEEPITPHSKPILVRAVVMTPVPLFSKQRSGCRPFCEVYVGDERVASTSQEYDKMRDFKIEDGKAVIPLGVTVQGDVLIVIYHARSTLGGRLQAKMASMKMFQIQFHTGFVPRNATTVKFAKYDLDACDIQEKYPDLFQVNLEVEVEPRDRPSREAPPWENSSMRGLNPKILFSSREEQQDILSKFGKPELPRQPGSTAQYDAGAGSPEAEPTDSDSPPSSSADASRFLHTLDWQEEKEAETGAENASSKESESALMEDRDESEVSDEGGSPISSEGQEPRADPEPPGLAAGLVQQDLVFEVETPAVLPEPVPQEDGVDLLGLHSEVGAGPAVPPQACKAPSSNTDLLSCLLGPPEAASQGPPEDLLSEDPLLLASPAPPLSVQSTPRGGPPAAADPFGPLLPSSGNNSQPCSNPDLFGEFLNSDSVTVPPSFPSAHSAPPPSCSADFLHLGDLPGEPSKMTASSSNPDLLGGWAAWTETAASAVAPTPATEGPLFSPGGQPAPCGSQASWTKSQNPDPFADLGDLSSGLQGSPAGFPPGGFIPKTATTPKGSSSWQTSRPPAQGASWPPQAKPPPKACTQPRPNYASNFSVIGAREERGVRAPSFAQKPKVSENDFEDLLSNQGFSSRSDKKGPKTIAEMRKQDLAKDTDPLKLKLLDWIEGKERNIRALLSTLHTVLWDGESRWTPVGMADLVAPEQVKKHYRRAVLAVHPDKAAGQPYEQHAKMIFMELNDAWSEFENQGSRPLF

[2] = in vitro; settings: African green monkey
[3] = system: SARS Coronavirus (Virus strain: Urbani); assay: microbe, parasite or virus in culture; type: cell-based
[4] = system: Vero76; settings: African green monkey
[5] = Cytotoxicity in CPE assay, Vero76; settings: African green monkey
[6] = single concentration of 10 μM, lower numbers indicate stronger hits
[7] = Severe acute respiratory syndrome coronavirus, Vero 76

CN1CCN(c2snc3cc(-c4cccnc4)cnc23)CC1 [Example 39, 3-(N-Me-piperazinyl)-6-(3-pyridyl)-isothiazolo[4,3-b]pyridine]
remaining binding at 10 µM [1, 6]: 88%

OCCNc1snc2cc(-c3cccnc3)cnc12 [Example 28]
remaining binding at 10 µM [1, 6]: 45%

COc1ccc(-c2cnc3c(N4CCC(O)CC4)snc3c2)cc1OC [Example 66, 1-(6-(3,4-dimethoxyphenyl)-isothiazolo[4,3-b]pyridin-3-yl)piperidin-4-ol]
CC50 [2]: > 100 µg/mL
EC50 [3]: 38 µg/mL (≈ 102 µM)
EC50 [3, 7]: 50 µg/mL (≈ 135 µM)
CC50 [4]: >100 µg/mL

CN1CCN(c2snc3cc(-c4ccsc4)cnc23)CC1 [Example 41, 3-(N-Me-piperazinyl)-6-(3-thienyl)-isothiazolo[4,3-b]pyridine]
remaining binding at 10 µM [1, 6]: 7.4%

COc1ccc(-c2cnc3c(NCCc4ccccc4)snc3c2)cc1OC [Example 74, 6-(3,4-dimethoxyphenyl)-N-phenethylisothiazolo[4,3-b]pyridin-3-amine]
CC50 [2]: > 100 µg/mL
EC50 [3]: 5.8 µg/mL (≈ 14.8 µM)
EC50 [3, 7]: 4.5 µg/mL (≈ 11.5 µM)
CC50 [4]: >100 µg/mL
remaining binding at 10 µM [1, 6]: 81%

COc1ccc(-c2cnc3c(N4CCOCC4)snc3c2)c(OC)c1 [Example 45, 4-(6-(2,4-Dimethoxyphenyl)isothiazolo[4,3-b]pyridin-3-yl)morpholine]
remaining binding at 10 µM [1, 6]: 6.3%

Nc1snc2cc(-c3ccc(F)cc3)cnc12 [Example 7, 3-amino-6-(4-fluorophenyl)-isothiazolo[4,3-b]pyridine]
remaining binding at 10 µM [1, 6]: 55%

COc1ccc(-c2cnc3c(N4CCCC4)snc3c2)cc1OC [Example 73, 6-(3,4-dimethoxyphenyl)-3-(pyrrolidin-1-yl)isothiazolo[4,3-b]pyridine]
Kd [1]: 100 nM
remaining binding at 10 µM [1, 6]: 0%

Nc1snc2cc(-c3cccnc3)cnc12 [Example 5, 3-amino-6-(3-pyridyl)-isothiazolo[4,3-b]pyridine]
remaining binding at 10 µM [1, 6]: 80%

COc1ccc(-c2cnc3c(OC)snc3c2)cc1OC [Example 36]
% Ctrl [1]: 19%

COc1snc2cc(-c3ccsc3)cnc12 [Example 37]
% Ctrl [1]: 22%

COc1ccc(-c2cnc3c(N(CCO)CCO)snc3c2)cc1OC [Example 70, 2,2′-(6-(3,4-dimethoxyphenyl)isothiazolo[4,3-b]pyridin-3-ylazanediyl)diethanol]
Kd [1]: 320 nM
remaining binding at 10 µM [1, 6]: 4%

OCCNc1snc2cc(-c3ccccc3)cnc12 [Example 31, 3-ethanolamino-6-phenyl-isothiazolo[4,3-b]pyridine]
remaining binding at 10 µM [1, 6]: 18%

COc1ccc(-c2cnc3c(NCC4CC4)snc3c2)cc1OC [Example 76, N-(cyclopropylmethyl)-6-(3,4-dimethoxyphenyl)isothiazolo[4,3-b]pyridin-3-amine]
EC50 [3]: 0.54 µg/mL (≈ 1.58 µM)
EC50 [3, 7]: 0.86 µg/mL (≈ 2.52 µM)
CC50 ([5]; CC50, Neutral Red): 33 µg/mL (≈ 96.7 µM)
CC50 ([5]; CC50, Visual): 18 µg/mL (≈ 52.7 µM)
Kd [1]: 27 nM
remaining binding at 10 µM [1, 6]: 0%

CN1CCN(c2snc3cc(-c4ccc(F)cc4)cnc23)CC1 [Example 42, 3-(N-Me-piperazinyl)-6-(4-fluorophenyl)-isothiazolo[4,3-b]pyridine]
remaining binding at 10 µM [1, 6]: 72%

Fc1ccc(-c2cnc3c(N4CCOCC4)snc3c2)cc1 [Example 24]
remaining binding at 10 µM [1, 6]: 11%

COc1snc2cc(-c3cccnc3)cnc12 [Example 35]
% Ctrl [1]: 93%

COc1cc(-c2cnc3c(N4CCOCC4)snc3c2)ccc1O [Example 64, 2-methoxy-4-(3-morpholinoisothiazolo[4,3-b]pyridin-6-yl)phenol]
CC50 ([5]; CC50, Neutral Red): 0.97 µg/mL (≈ 2.82 µM)
CC50 ([5]; CC50, Visual): 0.42 µg/mL (≈ 1.22 µM)
remaining binding at 10 µM [1, 6]: 0%

COc1cc(-c2cnc3c(N4CCOCC4)snc3c2)ccc1OC(C)=O [Example 47, 2-Methoxy-4-(3-morpholinoisothiazolo[4,3-b]pyridin-6-yl)phenyl acetate]
remaining binding at 10 µM [1, 6]: 0%

CN1CCN(c2snc3cc(-c4ccccc4)cnc23)CC1 [Example 38]
remaining binding at 10 µM [1, 6]: 76%

COc1snc2cc(Br)cnc12 [Example 14, 3-methoxy-6-bromo-isothiazolo[4,3-b]pyridine]
% Ctrl [1, 6]: 87%

c1cc(-c2cnc3c(N4CCOCC4)snc3c2)co1 [Example 52, 4-(6-(Furan-3-yl)isothiazolo[4,3-b]pyridin-3-yl)morpholine]
CC50 [2]: > 100 µg/mL
EC50 [3]: 49 µg/mL (≈ 171 µM)
EC50 [3, 7]: 44 µg/mL (≈ 153 µM)
CC50 [4]: >100 µg/mL
remaining binding at 10 µM [1, 6]: 0.15%

c1cc2c(cc1-c1cnc3c(N4CCOCC4)snc3c1)OCO2 [Example 51, 4-(6-(Benzo[d][1,3]dioxol-5-yl)isothiazolo[4,3-b]pyridin-3-yl)morpholine]
remaining binding at 10 µM [1, 6]: 51%

OCCNc1snc2cc(-c3ccsc3)cnc12 [Example 30, 3-ethanolamino-6-(3-thienyl)-isothiazolo[4,3-b]pyridine]
Kd [1]: 300 nM
remaining binding at 10 µM [1, 6]: 0.3%

COc1ccc(-c2cnc3c(N4CCOCC4)snc3c2)cc1OC [Example 26]
remaining binding at 10 µM [1, 6]: 0%

COc1snc2cc(-c3ccc(F)cc3)cnc12 [Example 34, 3-methoxy-6-(4-fluoro-phenyl)-isothiazolo[4,3-b]pyridine]
remaining binding at 10 µM [1, 6]: 37%

c1ccc(-c2cnc3c(N4CCOCC4)snc3c2)cc1 [Example 23, 3-morpholino-6-phenyl-isothiazolo[4,3-b]pyridine]
EC50 [3]: 4.4 µg/mL (≈ 14.8 µM)
EC50 [3, 7]: 4.5 µg/mL (≈ 15.1 µM)
CC50 ([5]; CC50, Neutral Red): 50 µg/mL (≈ 168 µM)
CC50 ([5]; CC50, Visual): 34 µg/mL (≈ 114 µM)
Kd [1]: 500 nM
remaining binding at 10 µM [1, 6]: 0.8%

COc1cc(OC)cc(-c2cnc3c(N4CCOCC4)snc3c2)c1 [Example 48, 4-(6-(3,5-Dimethoxyphenyl)isothiazolo[4,3-b]pyridin-3-yl)morpholine]
remaining binding at 10 µM [1, 6]: 0.2%

c1cncc(-c2cnc3c(N4CCOCC4)snc3c2)c1 [Example 25, 3-morpholino-6-(3-pyridyl)-isothiazolo[4,3-b]pyridine]
remaining binding at 10 µM [1, 6]: 25%

COc1ccc(-c2cnc3c(N4CCSCC4)snc3c2)cc1OC [Example 58, 6-(3,4-dimethoxyphenyl)-3-thiomorpholinoisothiazolo[4,3-b]pyridine]
Kd [1]: 230 nM
remaining binding at 10 µM [1, 6]: 0.8%

OCCNc1snc2cc(-c3ccc(F)cc3)cnc12 [Example 32, 3-ethanolamino-6-(3-(4-fluorophenyl))-isothiazolo[4,3-b]pyridine]
remaining binding at 10 µM [1, 6]: 2.2%

c1csc(-c2cnc3c(N4CCOCC4)snc3c2)c1 [Example 43, 4-(6-(Thiophen-2-yl)isothiazolo[4,3-b]pyridin-3-yl)morpholine]
Kd [1]: 47 nM
remaining binding at 10 µM [1, 6]: 0.05%

Nc1snc2cc(-c3ccsc3)cnc12 [Example 8, 3-amino-6-(3-thienyl)-isothiazolo[4,3-b]pyridine]
remaining binding at 10 µM [1, 6]: 61%

6-bromo-6-ethanolamino-isothiazolo[4,3-b]pyridine [Example 12]
% Ctrl [1]: 62%

COc1ccc(-c2cnc3c(N4CCN(C)CC4)snc3c2)cc1OC [Example 40, 3-(N-Me-piperazinyl)-6-(3,4-dimethoxyphenyl)-isothiazolo[4,3-b]pyridine]
remaining binding at 10 µM [1, 6]: 19%

COc1ccc(OC)c(-c2cnc3c(N4CCOCC4)snc3c2)c1 [Example 44, 4-(6-(2,5-Dimethoxyphenyl)isothiazolo[4,3-b]pyridin-3-yl)morpholine]
remaining binding at 10 µM [1, 6]: 0.7%

c1cc(-c2cnc3c(N4CCOCC4)snc3c2)cs1 [Example 27]
remaining binding at 10 µM [1, 6]: 0.1%

Nc1snc2cc(-c3ccccc3)cnc12 [Example 4, 3-amino-6-phenyl-isothiazolo[4,3-b]-pyridine]
remaining binding at 10 µM [1, 6]: 68%

COc1ccc(-c2cnc3c(N)snc3c2)cc1OC [Example 6, 3-amino-6-(3,4-dimethoxyphenyl)-isothiazolo[4,3-b]pyridine]
remaining binding at 10 µM [1, 6]: 70%
